Experimental data taken from patent publication US20090118135A1, “METHODS AND COMPOUNDS FOR REGULATING APOPTOSIS” (The Burnham Institute, priority 2007, published 2009).
Several values for one entry are separate records, joined by “and”; a condition that tells them apart may be missing. Equal values may be shown once. Read-outs that look alike come from different tables or passages of the source. Where no end group is shown, it is not given here. [ ]: non-standard residue; d: D form. The star is where a group is joined. FITC = O=C1OC2(c3ccc(O)cc3Oc3cc(O)ccc32)c2ccc(NC(=S)*)cc21; Ahx = NCCCCCC(=O)O

How the values were obtained:
GST = target: T1, GST (Schistosoma japonicum, UniProt P08515); assay: 1D 1H-NMR compound binding, GST negative control; conditions: negative control protein; result in words
T1 construct: made in house; host or cells: Escherichia coli BL21 Star (DE3), pGEX-4T-1
T1 sequence (P08515 whole entry): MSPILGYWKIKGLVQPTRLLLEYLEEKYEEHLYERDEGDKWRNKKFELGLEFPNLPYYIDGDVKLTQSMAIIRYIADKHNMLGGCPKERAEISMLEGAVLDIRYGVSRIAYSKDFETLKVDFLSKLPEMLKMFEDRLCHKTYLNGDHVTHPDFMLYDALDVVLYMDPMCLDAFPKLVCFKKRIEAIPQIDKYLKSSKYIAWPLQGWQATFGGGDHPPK
Experimental: (§1) FIGS. 22A-22F are line graphs showing a ^1H-NMR spectra confirmation of compound binding to Bcl-B. Compounds 5804000, 5954623, and 2011727 were diluted in PBS/D2O buffer to 1000 μM, then incubated with either GST (FIGS. 22A, C, E) or GST-Bcl-B (FIGS. 22B, D, F) at 0, 10 or 20 μM concentrations. FIGS. 22A-B show compound 5804000; FIGS. 22C-D show compound 5954623; and FIGS. 22E-F show the NMR spectra for the negative control compound 2011727. The most prominent peak shift for each compound is shown.
(§2) NMR experiments were performed at 25° C. on a 500 MHz Bruker Avance spectrometer (Bruker, Madison, Wis.) equipped with a 5 mm TXI probe. […] Reference solutions were then used in titration experiments with GST-Bcl-B or GST. All ^1H NMR spectra were obtained with the carrier position set to the water peak signal using WATERGATE. NMR data were processed and analyzed with MestRe Nova (MestReLab Research, Santiago de Compostela, Spain).

GST-Bcl-B [1] = target: T2, GST-Bcl-B (Homo sapiens, UniProt Q9HD36); assay: FITC-Bim-BH3/GST-Bcl-B fluorescence polarization displacement assay; assay type: binding; design: their C-terminal transmembrane domains (˜20 amino acids) were deleted to enhance protein solubility; made in house; host or cells: E. coli (BL21 Star (DE3); XL-1 Blue), pGEX-4T-1; conditions: FIG. 23D; result in words
T2 sequence (Q9HD36 1-182 limits assumed): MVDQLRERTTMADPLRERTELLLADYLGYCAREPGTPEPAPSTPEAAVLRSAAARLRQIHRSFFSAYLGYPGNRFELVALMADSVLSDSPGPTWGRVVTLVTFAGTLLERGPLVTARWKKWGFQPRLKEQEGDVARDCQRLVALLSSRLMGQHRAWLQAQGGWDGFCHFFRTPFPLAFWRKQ

GST-Bcl-B [2] = target: T2, GST-Bcl-B; assay: FITC-Puma-BH3/GST-Bcl-B fluorescence polarization displacement assay; assay type: binding; design: their C-terminal transmembrane domains (˜20 amino acids) were deleted to enhance protein solubility; made in house; host or cells: E. coli (BL21 Star (DE3); XL-1 Blue), pGEX-4T-1; conditions: FIG. 23C; result in words
GST-Bcl-B [3] = target: T2, GST-Bcl-B; assay: biochemical
GST-Bcl-B [4] = target: T2, GST-Bcl-B; assay: Bcl-B/FITC-TR3-r8 fluorescence polarization competition (displacement) assay, HTS and dose-response; conditions: for Bcl-B H Coefficient: Hill coefficient of Bcl-B dose-response curve
GST-Bcl-B [5] = target: T2, GST-Bcl-B; assay: 1D 1H-NMR compound binding, GST-Bcl-B; design: their C-terminal transmembrane domains (˜20 amino acids) were deleted to enhance protein solubility; made in house; host or cells: E. coli (BL21 Star (DE3); XL-1 Blue), pGEX-4T-1; conditions: result in words
Experimental: as §1, §2

[6] = system: HeLa Tet-On-Bcl-B (HTO2) cells; assay: Cell viability (ATPlite) in HeLa Tet-On-Bcl-B cells with or without doxycycline; assay type: cell-based; conditions: for IC50: Homo sapiens, HeLa, 24 h, read-out: concentration required to reduce HeLa Tet-On-Bcl-B cell viability by 50%
Experimental: (§3) FIG. 24A is a photograph of a blot wherein HeLa Tet-On (HTO1) and HeLa Tet-On-Bcl-B (HTO2) cells were treated with or without doxycycline (dox) for 24 h to induce their tetracycline-responsive promoters. Protein lysates were collected, and immunoblotting was used to analyze Bcl-B and Hsc70 (for loading control) expression. In FIG. 24B the cells were treated with or without doxycycline for 24 h, and then with staurosporine at the indicated concentrations for 24 h. Cell viability was measured using ATPlite. In FIG. 24C HeLa Tet-On-Bcl-B (HTO2) cells were treated with or without doxacycline as above. Compounds were then added at the indicated concentrations, and cell viability was measured 24 h later using ATPlite. The data shown represent mean±standard deviation (n=3).
HeLa Tet-On-Bcl-B cells were generated by stably transfecting the HeLa Tet-On cell line (Clontech, Mountain View, Calif.) with a pTRE2hyg vector (Clontech) containing the Bcl-B gene, using lipofectAMINE PLUS (Invitrogen, Carlsbad, Calif.). Briefly, cells were seeded overnight and transfected at 50% confluency for 3 h. After 24 h, the cells were re-seeded at <10% confluence and cultured in media (DMEM with 10% Tet System Approved FBS (Clontech)) containing G418 (100 μg/mL) and hygromycin B (300 μg/mL) for pTet-On and pTRE2hyg/Bcl-B plasmid maintenance, respectively. Positive foci resistant to both antibiotics were expanded. Colonies were then cultured in the presence or absence of doxycycline (Clontech, 1 μg/mL) for 16 h, and induced Bcl-B expression was confirmed by Western blot analysis. A previously developed polyclonal Bcl-B antibody^17 and an Hsc70 antibody (for protein concentration comparison; Santa Cruz Biotechnology, Santa Cruz, Calif.) were used.
(§4) Cells were seeded in 96-well plates at 5,000 cells/well in 100 μL of growth medium and allowed to incubate for 24 h. Afterwards, cells were incubated in the presence or absence of doxycycline (1 μg/mL) for another 24 h (to induce Bcl-B expression). Compounds were then added, as indicated, in a volume of 5 μL. The next day, cell viability was measured using the ATPlite Luminescence ATP Detection System (PerkinElmer, Waltham, Mass.) according to the manufacturer's specifications.

GST-Bcl-2 [7] = target: T3, GST-Bcl-2 (Homo sapiens, UniProt P10415); assay: biochemical
T3 sequence (P10415 1-218 limits assumed): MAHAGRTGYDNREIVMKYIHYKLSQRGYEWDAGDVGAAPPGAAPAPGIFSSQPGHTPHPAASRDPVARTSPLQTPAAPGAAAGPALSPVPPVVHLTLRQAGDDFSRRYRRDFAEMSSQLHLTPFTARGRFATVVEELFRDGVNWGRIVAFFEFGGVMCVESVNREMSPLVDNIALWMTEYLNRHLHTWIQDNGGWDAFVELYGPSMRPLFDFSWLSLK

HeLa Tet-On (HTO1) cells = assay: Cell viability (ATPlite) in control HeLa Tet-On cells; assay type: cell-based; conditions: cells do not express Bcl-B; result in words
Experimental: as §3, §4

GST-Hsp70 = GST-Hsp70 (Homo sapiens, UniProt P0DMV8); assay: FITC-ATP/GST-Hsp70 fluorescence polarization counter-screen; assay type: binding; conditions: HSP/FITC-ATP counter screen; read-out: HSP70 IC50 (Hill) (converted)
Chain of GST-Hsp70 (P0DMV8 whole entry): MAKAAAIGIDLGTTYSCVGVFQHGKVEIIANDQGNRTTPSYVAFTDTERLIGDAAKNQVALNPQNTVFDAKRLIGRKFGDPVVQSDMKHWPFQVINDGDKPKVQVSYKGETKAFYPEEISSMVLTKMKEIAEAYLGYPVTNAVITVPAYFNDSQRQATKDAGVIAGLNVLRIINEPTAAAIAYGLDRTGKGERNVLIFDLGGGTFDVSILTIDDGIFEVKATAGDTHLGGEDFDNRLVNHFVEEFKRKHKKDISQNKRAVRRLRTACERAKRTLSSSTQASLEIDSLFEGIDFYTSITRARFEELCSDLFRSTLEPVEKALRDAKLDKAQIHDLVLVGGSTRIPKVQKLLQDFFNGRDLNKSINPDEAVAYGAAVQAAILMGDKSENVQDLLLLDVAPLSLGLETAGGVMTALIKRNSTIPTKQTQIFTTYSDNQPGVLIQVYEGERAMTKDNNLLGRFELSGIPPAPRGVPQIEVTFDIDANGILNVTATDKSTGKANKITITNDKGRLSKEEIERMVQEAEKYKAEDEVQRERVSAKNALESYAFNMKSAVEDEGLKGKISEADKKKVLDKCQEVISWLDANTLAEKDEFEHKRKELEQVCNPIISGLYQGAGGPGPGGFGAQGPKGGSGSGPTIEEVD
Experimental: Dose-response curves were then generated (fluorescent compounds were eliminated), followed by counter-screening using a biologically unrelated FPA (GST-Hsp70/FITC-ATP).
A number of assays were then performed to eliminate non-specific or irreproducible hits (FIG. 21). […] Second, compound dose-response curves were generated using the fluorescence polarization assay. […] Finally, 1D-NMR was used to test the compounds for binding to GST-Bcl-B versus GST (as a negative control) (FIG. 22).

GST-Bcl-2 [8] = target: T3, GST-Bcl-2; assay: Bcl-2/FITC-TR3 fluorescence polarization competition assay (PBS + Tween-20); conditions: Hill coefficient of Bcl-2 dose-response curve
[9] = target: GST-Bfl-1 ΔTM [GST: P08515]; assay: Bfl-1 FPA plate, well H12: FITC-BH3 and GST-Bfl-1 without compound
[10] = target: GST-Bfl-1 ΔTM [GST: P08515]; assay: Bfl-1 FPA plate, well G12: FITC-BH3 and GST-Bfl-1 without compound
[11] = target: T4, GST (glutathione S-transferase control protein) (UniProt P08515 1-218 = GST); assay: fluorescence polarization, 5 nM FITC-Bid BH3 with various concentrations of GST
T4 construct: Negative control protein; also called control GST protein
T4 sequence (P08515 whole entry): as the sequence (P08515 whole entry) above

[12] = target: GST-Bfl-1 ΔTM [GST: P08515]; assay: Bfl-1 FPA plate, well D12: FITC-BH3 and GST-Bfl-1 without compound
[13] = target: GST-Bfl-1 ΔTM [GST: P08515]; assay: Bfl-1 FPA plate, well F12: FITC-BH3 and GST-Bfl-1 without compound
[14] = target: GST-Bfl-1 ΔTM [GST: P08515]; assay: Bfl-1 FPA plate, well B12: FITC-BH3 and GST-Bfl-1 without compound
[15] = target: GST-Bfl-1 ΔTM [GST: P08515]; assay: Bfl-1 FPA plate, well A12: FITC-BH3 and GST-Bfl-1 without compound (peptide-alone wells 43-52 mP)
[16] = target: GST-Bfl-1 ΔTM [GST: P08515]; assay: Bfl-1 FPA plate, well C12: FITC-BH3 and GST-Bfl-1 without compound
[17] = target: GST-Bfl-1 ΔTM [GST: P08515]; assay: Bfl-1 FPA plate, well E12: FITC-BH3 and GST-Bfl-1 without compound
[18] = target: GST-Bcl-2 ΔTM [GST: P08515]; assay: fluorescence polarization, direct binding to GST-Bcl-2
[19] = target: GST-Bcl-B ΔTM [GST: P08515]; assay: fluorescence polarization, 20 nM FITC-TR3-r8 with increasing GST-Bcl-B, HEPES/β-glycerophosphate buffer
[20] = target: GST-Bcl-B ΔTM [GST: P08515]; assay: fluorescence polarization, 20 nM FITC-TR3-r8 with increasing GST-Bcl-B
[21] = target: GST-Bcl-B ΔTM [GST: P08515]; assay: fluorescence polarization binding curves

Cc1ccc(C)n1-c1ccc(Br)cc1C(=O)O [Compound 5954623]
binding to GST by 1D-NMR (GST): did not bind to GST
displacement of FITC-Bim-BH3 from GST-Bcl-B (GST-Bcl-B [1]): displaced FITC-Bim-BH3
displacement of FITC-Puma-BH3 from GST-Bcl-B (GST-Bcl-B [2]): displaced FITC-Puma-BH3
IC50 (GST-Bcl-B [3]): 15.6 µM and 16.3 µM
EC50 (GST-Bcl-B [4]): 2.1 µM
Bcl-B H Coefficient (GST-Bcl-B [4]): 1.233
binding to GST-Bcl-B by 1D-NMR (GST-Bcl-B [5]): bound to GST-Bcl-B in a concentration dependent manner

Cc1cc(C)nc(NC(=N)Nc2cccc(N)c2)n1 [Compound 5804000]
binding to GST by 1D-NMR (GST): did not bind to GST
displacement of FITC-Bim-BH3 from GST-Bcl-B (GST-Bcl-B [1]): did not
displacement of FITC-Puma-BH3 from GST-Bcl-B (GST-Bcl-B [2]): did not
IC50 (GST-Bcl-B [3]): 11.3 µM
EC50 (GST-Bcl-B [4]): 5.6 µM
Bcl-B H Coefficient (GST-Bcl-B [4]): 1.599
IC50 ([6]; in the absence of Bcl-B (without doxycycline)): ~148 µM
IC50 ([6]; in the presence of Bcl-B (with doxycycline)): ~226 µM
binding to GST-Bcl-B by 1D-NMR (GST-Bcl-B [5]): bound to GST-Bcl-B in a concentration dependent manner

O=C(O)Cc1c[nH]c2ccc(O)cc12 [Compound 5106705]
IC50 (GST-Bcl-B [3]): 7.88 µM and 7.84 µM
Bcl-B H Coefficient (GST-Bcl-B [4]): 3.385
IC50 (GST-Bcl-2 [7]): 9.83 µM and 9.78 µM

CN[C@@H]1C[C@H]2O[C@@](C)([C@@H]1OC)n1c3ccccc3c3c4c(c5c6ccccc6n2c5c31)C(=O)NC4 [staurosporine]
effect of doxycycline on compound-induced cell death in control cells (HeLa Tet-On (HTO1) cells): the same level of staurosporine-induced cell death whether or not doxycycline was added
effect of doxycycline-induced Bcl-B expression on compound-induced cell death ([6]; result in words): more resistant to staurosporine-induced cell death

O=C(O)C1Nc2c(Cl)cc(Cl)cc2C2C=CCC12 (stereo not drawn) [Compound 5736518]
IC50 (GST-Hsp70): 37 µM
IC50 (GST-Bcl-B [3]): 1.03 µM
Bcl-B H Coefficient (GST-Bcl-B [4]): 1.13
Bcl-2 H Coefficient (GST-Bcl-2 [8]): 2.956

O=S(=O)(O)c1cccc2cccc(Nc3ccccc3)c12 [Compound 5255876]
IC50 (GST-Bcl-B [4]; Bcl-B IC50 (g/L)): 2.94 µM
IC50 (GST-Bcl-B [4]; Bcl-B IC50 (uM)): 2.95 µM
Bcl-B H Coefficient (GST-Bcl-B [4]): 2.628
IC50 (GST-Bcl-2 [7]): 12.6 µM

B1: FITC-Bid BH3 peptide (peptide)
peptide: {FITC-Ahx}-EDIIRNIARHLAQVGDSMDR-NH2
notes: also called FITC-BH3 peptide; FITC-BH3
fluorescence polarization (mP) [9]: 163 mP
fluorescence polarization (mP) [10]: 155 mP
binding result [11]: no binding
fluorescence polarization (mP) [12]: 158 mP
fluorescence polarization (mP) [13]: 163 mP
fluorescence polarization (mP) [14]: 160 mP
fluorescence polarization (mP) [15]: 148 mP
fluorescence polarization (mP) [16]: 166 mP
fluorescence polarization (mP) [17]: 157 mP

B2: FITC-TR3-9-r8 (peptide)
peptide: {FITC-Ahx}-FSRSLHSLLG[Ahx][dR][dR][dR][dR][dR][dR][dR][dR]
Kd [18]: < 0.1 µM
Kd [19]: 0.02 µM
Kd [20]: 0.02 µM
fold increase of affinity in HβG buffer against PBS buffer [21]: 5 to 10 fold
